Source: patent publication US7625696B2, “Screening method” (Takeda Pharmaceutical Company Limited, priority 2003, dated 2009)

How the values were obtained:
rat GPR30 = molecular target: T1, rat GPR30 (Rattus norvegicus, UniProt O08878, S320N); experiment: Intracellular calcium ion level-increasing activity using FLIPR, rat GPR30 cells; assay type: cell-based; conditions: rat GPR30-expressed CHO cells, Fluo 3-AM, up to 100 μM (FIGS. 4-6, 8)
T1 construct: expressed in transfected cells; host or cells: CHO/dhfr- cells (ATCC), clone #6
T1 sequence (O08878 1-375 S320N): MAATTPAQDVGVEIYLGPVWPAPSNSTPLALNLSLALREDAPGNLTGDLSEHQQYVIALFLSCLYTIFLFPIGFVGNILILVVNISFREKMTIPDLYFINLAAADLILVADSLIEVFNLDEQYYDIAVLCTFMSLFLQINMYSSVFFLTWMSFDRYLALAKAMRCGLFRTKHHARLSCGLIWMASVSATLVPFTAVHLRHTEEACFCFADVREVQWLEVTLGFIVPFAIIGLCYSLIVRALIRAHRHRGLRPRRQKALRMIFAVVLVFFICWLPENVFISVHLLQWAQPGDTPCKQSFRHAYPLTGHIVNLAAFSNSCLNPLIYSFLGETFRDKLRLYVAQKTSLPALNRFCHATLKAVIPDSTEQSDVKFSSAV
Excerpt: The cDNA (SEQ ID NO: 6) for rat GPR30 was cloned by known PCR techniques to incorporate the cDNA into pAKKO1.11H expression vector (Biochemica et Biophysica Acta, 1219 (1994) 251-259). The structure of plasmid was verified by restriction enzyme digestion and sequencing analysis and a correctly constructed plasmid was used as CHO cell expression plasmid pAK-rGPR30.
In accordance with the procedures described in REFERENCE EXAMPLE 1, this plasmid pAK-rGPR30 was transfected to CHO/dhfr− cells (American Type Culture Collection) by electroporation and transformant CHO cell #6 clone highly expressing rat GPR30 was selected was selected (hereinafter briefly referred to as rat GPR30 cell).
(§1) The human GPR30 and rat GPR30 cells obtained in REFERENCE EXAMPLES above were suspended in medium (10% dFBS-DMEM) in 15×10^4 cells/ml, respectively. A 200 μl aliquot of the suspension was plated in each well of a 96-well plate (Black plate clear bottom, Coster, Inc.) for FLIPR, using an 8 channel pipette (3.0×10^4 cells/200 μl/well), and cultured at 37° C. overnight in a 5% CO2 incubator, which was provided for use (hereinafter referred to as the cell plate). Then, 20 ml of H/HBSS (9.8 g of Nissui HANKS 2 (Nissui Seiyaku Co., Ltd.), 0.35 g of sodium hydrogencarbonate, 4.77 g of HEPES; after adjusting the pH to 7.4 with 6 M sodium hydroxide solution, sterilization through a filter followed), 200 μl of 250 mM Probenecid and 200 μl of fetal bovine serum (FBS) were mixed. […]
(§2) All trans-retinol, all trans-retinal or 4-HPR (4-hydroxyphenylretinamide) was added to and diluted with 150 μl of H/HBSS containing 2.5 mM Probenecid and 0.1% CHAPS or H/HBSS containing 2.5 mM Probenecid, 0.1% CHAPS and 0.2% BSA; the dilution was transferred to a 96-well plate (V-Bottom Plate, Coster, Inc.) for FLIPR (hereinafter, the sample plate). […] Changes in fluorescence intensity were measured with passage of time to determine the intracellular calcium ion level-increasing activities.

GPR30 = experiment: Intracellular calcium increase in GPR30-expressed CHO cells (summary statement); assay type: cell-based; conditions: stimulation with the compound
Method: as §1, §2

human GPR30 = molecular target: T2, human GPR30 (Homo sapiens, UniProt Q99527, P21A/Q20H); experiment: Intracellular calcium ion level-increasing activity using FLIPR, human GPR30 cells; assay type: cell-based; conditions: human GPR30-expressed CHO cells, Fluo 3-AM, up to 100 μM (FIGS. 1-3, 7)
T2 construct: expressed in transfected cells; host or cells: CHO/dhfr- cells (ATCC), clone #19
T2 sequence (Q99527 whole entry Q20H/P21A): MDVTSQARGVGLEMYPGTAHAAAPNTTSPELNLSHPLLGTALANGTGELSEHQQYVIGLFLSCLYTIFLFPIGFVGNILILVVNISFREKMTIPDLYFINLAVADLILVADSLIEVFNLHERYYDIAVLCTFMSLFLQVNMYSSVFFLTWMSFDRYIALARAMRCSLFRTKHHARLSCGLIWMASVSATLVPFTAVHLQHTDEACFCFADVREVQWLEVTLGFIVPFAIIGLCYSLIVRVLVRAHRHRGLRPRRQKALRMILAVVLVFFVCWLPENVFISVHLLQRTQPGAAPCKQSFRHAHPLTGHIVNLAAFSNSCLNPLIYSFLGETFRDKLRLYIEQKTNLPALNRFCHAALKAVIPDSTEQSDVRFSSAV
Excerpt: The cDNA (SEQ ID NO: 5) for human GPR30 was cloned by known PCR techniques to incorporate the cDNA into pAKKO1.11H expression vector (Biochemica et Biophysica Acta, 1219 (1994) 251-259). The structure of plasmid was verified by restriction enzyme digestion and sequencing analysis and a correctly constructed plasmid was used as CHO cell expression plasmid pAK-hGPR30.
This plasmid pAK-hGPR30 was transfected to CHO/dhfr− cells (American Type Culture Collection) by electroporation. First, plasmid pAK-hGPR30 was digested with restriction enzyme Ahd I. A cuvette for electroporation received 5×10^6 CHO/dhfr− cells suspended in 500 μl of PBS and 5 μg of plasmid DNA dissolved in 10 μl of TE buffer. The mixture was settled on ice for 5 minutes and subjected to electroporation under conditions of […] and 960 μF. After settling on ice for 5 minutes, the total volume of CHO/dhfr− cells were plated in a T75 flask and incubated in nucleic acid-containing MEMalpha medium (Invitrogen, Inc.) supplemented with 10% fetal bovine serum (BIO WHITTAKER, Inc.) at 37° C. in 5% carbon dioxide for one day. The cells were dispersed by trypsin treatment, recovered from the flask and plated in a 96-well plate by 200 counts or 500 counts per well. Incubation was initiated in nucleic acid-free MEMalpha medium (Invitrogen, Inc.) supplemented with 10% dialyzed fetal bovine serum (JRH BIOSCIENCES, Inc.) and 50 μg/ml gentamicin at 37° C. in 5% carbon dioxide. The plasmid-transfected transformants of CHO cells grew in the medium but the non-transfected cells gradually died. On Days 8 to 10 after the incubation, one colony that kept growing in one well of the 96-well plate were isolated and approximately 48 colonies of the transformants of CHO cells were selected. From each cell selected, RNA was recovered using a commercially available kit for RNA isolation. Subsequently, transformant CHO cell #19 clone highly expressing human GPR30 was selected by known TaqMan RT-PCR (hereinafter briefly referred to as human GPR30 cell). […]

various cancer cells = conditions: J. Biol. Chem. 271 (37), 22441-22446, 1996; cited from earlier work
nuclear receptor PAR = conditions: J. Biol. Chem. 271 (37), 22441-22446, 1996; cited from earlier work

SMILES	increase in the intracellular calcium ion concentration (change in fluorescence intensity) (rat GPR30)	intracellular calcium in the GPR30-expressed CHO cells (GPR30)	increase in the intracellular calcium ion concentration (change in fluorescence intensity) (human GPR30)	apoptosis of various cancer cells (various cancer cells)	agonist for nuclear receptor (nuclear receptor PAR)
CC1=C(/C=C/C(C)=C/C=C/C(C)=C/CO)C(C)(C)CCC1 [all trans-retinol]	induced an increase in the intracellular calcium ion concentration in a manner dependent on the concentration	specifically increased	induced an increase in the intracellular calcium ion concentration in a manner dependent on the concentration	–	–
CC1=C(/C=C/C(C)=C/C=C/C(C)=C/C=O)C(C)(C)CCC1 [all trans-retinal]	induced an increase in the intracellular calcium ion concentration in a manner dependent on the concentration	–	induced an increase in the intracellular calcium ion concentration in a manner dependent on the concentration	–	–
CC1=C(/C=C/C(C)=C/C=C/C(C)=C/C(=O)Nc2ccc(O)cc2)C(C)(C)CCC1 [4-HPR, 4-hydroxyphenylretinamide]	induced an increase in the intracellular calcium ion concentration in a manner dependent on the concentration	specifically increased	induced an increase in the intracellular calcium ion concentration in a manner dependent on the concentration	induces apoptosis of various cancer cells	is an agonist for nuclear receptor PAR
